Consider eleven molecules from publication PMC3904841, “Crystal Structures of HIV-1 gp120 Envelope Glycoprotein in Complex with NBD Analogues That Target the CD4-Binding Site” (PLoS ONE, 2014).

The term IC50 denotes the concentration that inhibits the measured activity by half. Usually Kd stands for the equilibrium constant for the complex coming apart.

The test system of series [1] is gp120 coremin. Put plainly: SPR enhancement of gp120 coremin binding to 17b antibody. The arrangement: species or system HIV-1. The conditions noted are these: 100 nM gp120, 0–100 µM compound, 17b captured on CM5 chip. An excerpt: A major undesired trait of NBD analogues as HIV-1 entry inhibitors is their capacity to activate viral infectivity in CD4-negative cells. To understand the underlying mechanisms of activation of HIV-1 infectivity in CD4-negative cells in the presence of select NBD analogues, we asked if the capacity of the four analogues to induce gp120 conformational change to the CD4-bound state might account for observed differences in viral infectivity. To address this question, we employed surface-plasmon resonance (SPR) and measured the capacity of NBD-557, (±)-AS-II-37, (±)-AS-I-261, (±)-MAE-II-167, and (±)-MAE-II-188 to increase the binding affinity of either the minimal core (coremin) or full-length gp120 for the 17b antibody, which recognizes gp120 in the CD4-bound conformation. We chose gp120 coremin over coree for SPR measurement because the coree is already in the CD4 bound conformation, and the effect of these small molecules on 17b-gp120 interaction is undetectable.
Figure 7 NBD analogue binding to gp120 enhances 17b-gp120 interaction. (A–D) 100 nM of gp120 coremin or full-length gp120 in the presence of 0–100 µM of NBD analogues was passed over 17b antibody immobilized on a CM5 chip. The binding of gp120 to 17b increased, in a concentration dependent manner, in response to treatment with the NBD analogues.
SPR experiments were performed using Biacore T100 (GE Healthcare) at 25°C. […] HBS-EP buffer (GE Healthcare) was used for the running buffer. A capture method was used to monitor the enhancement of gp120 binding to 17b by NBD-analogues. […] The running buffer contained 20 mM HEPES, pH 7.4, 150 mM NaCl, 0.05% P-20, and 5% DMSO.

For series [2], the system named is HIV-1YU2 virus. The conditions noted are these: cited from earlier work; for Activation of Viral Infectivity: relative, CD4 negative Cf2Th-CCR5 cells; for activation of viral infectivity in CD4-negative cells (in words): summary of Table S1.
In series [3] the test system is amphotropic murine leukemia virus (A-MLV). The conditions noted are these: cells infected with A-MLV, cited from earlier work.
Series [4] has as its system Cf2Th-CD4-CCR5 cells. More on the design: method as in PMID 22497421. The conditions noted are these: 100 µM; ref [24]; cited from earlier work.
Series [5] has as its target gp120. The conditions noted are these: cited from earlier work; for Kd: binding affinity for gp120.
The test system of series [6] is HIV-1 YU2 virus. Particulars: cited from earlier work; for IC50: Cf2Th-CD4/CCR5 cells infected with HIV-1 YU2 virus.
Series [7] concerns full-length gp120 variants possessing the Ser 375 to Trp mutation (S375W). More on the design: method as in PMID 19000821. The conditions noted are these: ref [21]; cited from earlier work.
Series [8] concerns Clade CRF34_1OUR2478P gp120 coree. Put plainly: SPR binding of gp120 coree to immobilized NBD-556 and sCD4. The conditions noted are these: ligand on CM5 chip, Trp 375. More on the design: species or system HIV-1. The source says: (§1) Our structures reveal that Region I and II of the NBD congeners fit deeply within the Phe 43 cavity. As such, mutations that alter the shape of the cavity will also affect binding of the small molecules to gp120. One residue in close proximity to Region I and II of the NBD congeners is Ser 375 (vide supra). […] In several group O, N, or M HIV-1 viruses, Ser 375 of gp120 is replaced with either Met or His. […] However, the rate of Ser 375 to Trp mutation may be counterbalanced because the same mutation is also detrimental to the viruses by predisposing gp120 to adopt the CD4-bound conformation, a state prone to inactivation. Overall, the Phe 43 cavity remains an indispensable target for small molecule inhibitors.
(§2) Figure 8 NBD analogues are unable to bind Ser 375 variants of gp120s. […] Ser 375 was shown in the NBD-557 bound cavity. […] NBD-557 modeled into the Phe 43 cavity of clade A/E gp120 clashes with His 375. […] Met 375 modeled into NBD-557-bound YU2 gp120 clashes with NBD-557. […] NBD-557 clashes with Trp 375 in the Phe 43 cavity.

Series [9] relates to Clade AKER2008 gp120 coree. The series is described as above. The arrangement: species or system HIV-1. The conditions noted are these: ligand on CM5 chip, Met 375.
Text: as §1, §2

In series [10] the test system is Clade A/E93TH057 gp120 coree. Described as above. More on the design: species or system HIV-1. The conditions noted are these: ligand on CM5 chip, His 375.
Text: as §1, §2

The subject of series [11] is virus expressing the S375W Env gp120. The arrangement: method as in PMID 19000821. Particulars: virus expressing S375W Env gp120 incubated with target cells; ref [21]; cited from earlier work.
The test system of series [12] is laboratory-adapted HIV-1IIIB strain. More on the design: method as in Zhao et al. [18]. The conditions noted are these: printed in the HIV-1 YU2 column, but determined in laboratory-adapted HIV-1IIIB strain; ref Zhao et al. [18]; cited from earlier work.
Setting [13] is: HIV-1YU2, normalized to 2 (NBD-557), ref [24,27].
Setting [14] is: HIV-1YU2, normalized to N-(4-Chloro-3-Fluorophenyl)-N'-(1,2,2,6,6-Pentamethylpiperidin-4-yl)ethanediamide, ref [24,27].
[15] abbreviates: HIV-1YU2, normalized to 1 (NBD-556), ref Madani et al. [21].

Read-outs that look alike come from different tables or passages of the source.

For the molecule `O=C(NCC1CCN(C2CC2)C1)C(=O)Nc1ccc(Cl)c(F)c1` (centres unmarked) [MAE-II-188], the “enhancement of gp120 coremin binding to 17b” value (from here on “enhancement … to 17b”) in series [1] is recorded as “equally enhanced”. Also, the “Activation of Viral Infectivity” value in [2] (setting [13]) is listed as 0.3. Further, in series [3] (ref [24,27]), the half-inhibitory concentration (IC50) was > 100 µM.

Turning to `N=C(N)N[C@H]1Cc2ccccc2[C@@H]1NC(=O)C(=O)Nc1ccc(Cl)c(F)c1` [DMJ-I-228], the “Activation of Viral Infectivity” value in series [2] (setting [14]) was 0.0. In addition, the “activation of viral infectivity in CD4-negative cells (in words)” value in [2] (ref [24,27]) is reported as “did not”. Further, the “effect on cell growth dynamics (cytotoxicity)” value in [4] was “does not alter the cell growth dynamics”. In addition, the concentration for half-maximal inhibition (IC50) is > 100 µM in series [3] (ref [24,27]) and 22.9 µM in series [6] (ref [24,27]). In series [5] (ref [24,27]), the Kd was 250 nM.

Consider `N=C(N)N[C@@H]1Cc2ccccc2[C@H]1NC(=O)C(=O)Nc1ccc(Cl)c(F)c1` [AWS-I-169], for which the “Activation of Viral Infectivity” value in series [2] (setting [14]) is given as 0.0. Further, the figures for the IC50 in series [3] (ref [24,27]) and in [6] (ref [24,27]) were > 100 µM and 21.3 µM, respectively. Besides, in [5] (ref [24,27]), the Kd was 300 nM.

For `O=C(NCC1NCCc2ccccc21)C(=O)Nc1ccc(Cl)c(F)c1` (centres unmarked) [AS-II-37], in series [1], the “enhancement … to 17b” value is given as “somewhat reduced enhancement”. For the same molecule, in series [2] (setting [13]), the “Activation of Viral Infectivity” value is recorded as 0.6. Besides, the figures for the IC50 in [3] (ref [24,27]) and in series [6] (ref [24,27]) were > 100 µM and 50.4 µM, respectively. Besides, the Kd in series [5] (ref [24,27]) was 1200 nM.

Consider `CC1(C)CC(NC(=O)C(=O)Nc2ccc(Cl)cc2)CC(C)(C)N1` [NBD-556], for which the “binding to S375W full-length gp120” value in series [7] was “inefficiently bind”. The “Activation of Viral Infectivity” value in series [2] (setting [15]) is 1.0 ± 0.1. Besides, the “binding of gp120 coree to immobilized ligand” value in series [8] was “does not bind”; in [9] it was “does not bind”; in [10], “does not show detectable binding”. The concentration for half-maximal inhibition (IC50) in series [3] (ref Madani et al. [21]) and in series [6] (ref Madani et al. [21]) was > 100 µM throughout.

Turning to `COc1ccnc2[nH]cc(C(=O)C(=O)N3CCN(C(=O)c4ccccc4)C[C@H]3C)c12` [BMS-806, reference compound], the “enhancement … to 17b” value in series [1] is “did not enhance”.

For the molecule `N=C(N)NC[C@H]1Cc2ccccc2[C@@H]1NC(=O)C(=O)Nc1ccc(Cl)c(F)c1` [DMJ-II-121], the “Activation of Viral Infectivity” value in [2] (HIV-1YU2, normalized to 1 (NBD-556), ref [24,27]) is reported as 0.0. The IC50 in series [3] (ref [24,27]) was > 100 µM; in series [6] (ref [24,27]), 2.3 µM. Also, the dissociation constant Kd in series [5] (ref [24,27]) was 110 nM.

`CC1(C)CC(NC(=O)C(=O)Nc2ccc(Br)cc2)CC(C)(C)N1` [NBD-557, reference compound]: in series [2] (setting [15]), the “Activation of Viral Infectivity” value is given as 0.9 ± 0.4. In addition, in series [5] (ref Madani et al. [21]), the dissociation constant Kd is 2200 nM. For the same molecule, the “enhancement of CD4-independent viral entry” value in [11] was “does not enhance”. Moreover, the IC50 in [12] is 3.08 µM.

Regarding `CC1(C)CC(NC(=O)C(=O)Nc2ccc(Cl)c(F)c2)CC(C)(C)N1` [JRC-II-191], the “Activation of Viral Infectivity” value in [2] (setting [15]) is recorded as 1.9 ± 0.2. The half-maximal inhibitory concentration (IC50) in [3] (ref Madani et al. [21]) is > 100 µM; in series [6] (ref Madani et al. [21]) it was 54.4 µM. In series [5] (para-chloro, meta-fluoro aromatic ring, compared with NBD-556, ref [21], [27]), the “enhancement of binding affinity for YU2 gp120” value is listed as 5 fold. For the same molecule, in series [6] (compared with NBD-556, ref [21], [27]), the “inhibition of HIV-1YU2 infection of cells expressing CD4 and CCR5” value was “more potently than NBD-556”.

For the molecule `O=C(NC[C@@]12CCC[C@@H]1CNC2)C(=O)Nc1ccc(Cl)c(F)c1` (relative stereo) [MAE-II-167], the “enhancement … to 17b” value in series [1] is “equally enhanced”. Also, the “Activation of Viral Infectivity” value in [2] (setting [13]) is listed as 0.0. The IC50 in series [3] (ref [24,27]) was 93.1 µM; in series [6] (ref [24,27]) it was 68.3 µM. Moreover, the Kd in [5] (ref [24,27]) was 3100 nM.

For the molecule `CC1(C)O[C@@H](CN)[C@H](CNC(=O)C(=O)Nc2ccc(Cl)c(F)c2)O1` (relative stereo) [AS-I-261], the “enhancement … to 17b” value in series [1] was “equally enhanced”. The “Activation of Viral Infectivity” value in [2] (setting [13]) is on record as 1.5. In series [2] (ref [24,27]), the “activation of viral infectivity in CD4-negative cells (in words)” value was “activated viral infectivity”. Also, the results for the IC50 in series [3] (ref [24,27]) and in series [6] (ref [24,27]) were 94.4 µM and 76.6 µM, respectively. Also, the dissociation constant Kd in series [5] (ref [24,27]) is 2600 nM.
